In US20260373165A1, “PHARMACEUTICAL COMBINATIONS AND COMPOSITIONS, AND METHODS OF USE THEREOF” (SHENZHEN HIGHTIDE BIOPHARMACEUTICAL LTD., priority 2022, published 2026):

Legend:
Assay type in all cases: in vivo, mouse (C57BL/6J male, 60% HFD DIO)
[1] = Example 2: body weight and body weight change rate, combined administration of HTD1801 and dapagliflozin or empagliflozin in DIO obesity model; conditions: HTD1801 250 mpk, dapagliflozin 10 mpk, empagliflozin 15 mpk p.o. QD, semaglutide 10 nmol/kg s.c. Q3D
Text: (§1) After 5-6-week-old C57BL/6J male mice were acclimatized for 1 week, the weight of each mouse was weighed, and the mice were randomly divided into a control group and a model group by taking the weight as a main index, where 12 mice in the control group were fed with common feed (CD), and the mice in the remaining model group were fed with 60% high-fat feed (60% HFD) for 10-12 weeks to construct a DIO obesity model, with the average body weight being not less than 40 g. The mice fed with 60% HFD were grabbed and acclimatized with a solvent for 3 days, where the acclimatization with a solvent was performed by oral gavage of 0.5% CMC-Na, once daily.
(§2) The food intake, the body weight, the body fat ratio, and the insulin level of the mice were respectively measured, followed by fasting blood glucose level, and the mice were randomly grouped according to Table 12 by taking the body weight as an index, and the remaining ungrouped mice were euthanized. After grouping, each group of mice was administered according to Table 12, the day of administration was defined as DO, and the administration volume of each drug was determined based on the results obtained by the calculation of 5 μL/g× mouse body weight (g).
(§3) For the combined administration group, the administration sequence and the administration time were kept consistent at each administration. The mice were continuously fed with high-fat feed during the administration period until the administration was finished. During administration, 1 food intake was measured per week (difference in feed weights at an interval of 24 h was measured); each group of mice was weighed once daily; blood was collected from the tail tip on day 16 and day 30, respectively, so as to measure fasting blood glucose levels once (blood was collected after fasting from 9:00 am to 3:[…]); on day 24 of administration (D23), the body fat ratio and the lean mass of each group of mice were measured by MRI (the measurement period was kept consistent with that before grouping); after 25 days of administration intervention (day 24), each group of mice was fasted for 6 h and subjected to OGTT (0 min, 15 min, 30 min, 60 min, 90 min, 120 min) to detect their blood glucose levels; after 29 days of administration intervention (day 28), each group of mice was fasted for 6 h and subjected to OGTT (0 min, 15 min, 30 min, 60 min, 90 min, 120 min), and meanwhile subjected to blood sampling via submaxillary vein (0 min, 15 min, 30 min, about 30 μL of blood sampled each time), and then the blood plasma was separated for detecting the insulin level by ELISA, where the separated blood plasma was more than 10 μL; the next day (D30) at the end of administration was set as the test endpoint, and the mice were fasted for 6 h in the morning and subjected to fasting blood glucose level measurement; subsequently, the mice were euthanized with CO2, blood was collected from the heart of each mouse for analysis, and each group of mice was dissected; the liver and subcutaneous, epididymal and mesenteric fat was collected, photographed and weighed, respectively.

[2] = Example 2: body fat mass by MRI on day 23
Text: as §1, §2, §3
The body weight, the body fat mass and the body fat ratio of each animal in groups G1 to G8 were measured on day 23 and averaged for each group, and the results are shown in Table 15 below, and FIGS. 21 and 22.

[3] = Example 2: lean mass by MRI on day 23
Text: as §1, §2, §3
The body weight, the lean mass and the lean ratio of each animal in groups G1 to G8 were measured on day 23 and averaged for each group, and the results are shown in Table 16 below, and FIGS. 23 and 24.

[4] = mean, day 23, HTD1801 250 mpk, dapagliflozin 10 mpk, empagliflozin 15 mpk p.o. QD

In the case of `COc1ccc2cc3[n+](cc2c1OC)CCc1cc2c(cc1-3)OCO2.C[C@H](CCC(=O)[O-])[C@H]1CC[C@H]2[C@@H]3[C@@H](O)C[C@@H]4C[C@H](O)CC[C@]4(C)[C@H]3CC[C@]12C` [HTD1801, berberine ursodeoxycholate], the “body weight change / weight loss effect (in words)” value [1] is reported as “close to that of the semaglutide group, with a uniform and sustained decrease throughout the administration period”, the “Body weight (mean)” value ([1]; day 0 (baseline)) is reported as 45.3 g and the “Body weight change rate” value ([1]; day 0 (baseline)) is reported as 0.0%. The “Body weight (mean)” value ([1]; day 1) was 44.5 g, the “Body weight change rate” value ([1]; day 1) was −1.6% and the “Body weight (mean)” value ([1]; day 2) was 44.1 g. For the same compound, the “Body weight change rate” value ([1]; day 2) was −2.5%, the “Body weight (mean)” value ([1]; day 3) was 44.1 g and the “Body weight change rate” value ([1]; day 3) was −2.5%. The “Body weight (mean)” value ([1]; day 4) was 43.6 g, the “Body weight change rate” value ([1]; day 4) was −3.7% and the “Body weight (mean)” value ([1]; day 5) was 43.1 g. For the same compound, the “Body weight change rate” value ([1]; day 5) was −4.9%, the “Body weight (mean)” value ([1]; day 6) was 42.7 g and the “Body weight change rate” value ([1]; day 6) was −5.7%. For the same compound, the “Body weight (mean)” value ([1]; day 7) was 42.7 g, the “Body weight change rate” value ([1]; day 7) was −5.7% and the “Body weight (mean)” value ([1]; day 8) was 42.5 g. For the same compound, the “Body weight change rate” value ([1]; day 8) was −6.2%, the “Body weight (mean)” value ([1]; day 9) was 41.9 g and the “Body weight change rate” value ([1]; day 9) was −7.5%. For the same compound, the “Body weight (mean)” value ([1]; day 10) was 41.9 g, the “Body weight change rate” value ([1]; day 10) was −7.4% and the “Body weight (mean)” value ([1]; day 11) was 41.7 g. The “Body weight change rate” value ([1]; day 11) was −7.9%, the “Body weight (mean)” value ([1]; day 12) was 41.3 g and the “Body weight change rate” value ([1]; day 12) was −8.7%. For the same compound, the “Body weight (mean)” value ([1]; day 13) was 40.3 g, the “Body weight change rate” value ([1]; day 13) was −10.9% and the “Body weight (mean)” value ([1]; day 14) was 40.5 g. The “Body weight change rate” value ([1]; day 14) was −10.7%, the “Body weight (mean)” value ([1]; day 15) was 40.3 g and the “Body weight change rate” value ([1]; day 15) was −11.1%. For the same compound, the “Body weight (mean)” value ([1]; day 16) was 40.2 g, the “Body weight change rate” value ([1]; day 16) was −11.2% and the “Body weight (mean)” value ([1]; day 17) was 39.9 g. The “Body weight change rate” value ([1]; day 17) was −11.8%, the “Body weight (mean)” value ([1]; day 18) was 39.7 g and the “Body weight change rate” value ([1]; day 18) was −12.3%. The “Body weight (mean)” value ([1]; day 19) was 39.4 g, the “Body weight change rate” value ([1]; day 19) was −12.8% and the “Body weight (mean)” value ([1]; day 20) was 39.3 g. The “Body weight change rate” value ([1]; day 20) was −13.2%, the “Body weight (mean)” value ([1]; day 21) was 39.1 g and the “Body weight change rate” value ([1]; day 21) was −13.5%. For the same compound, the “Body weight (mean)” value ([1]; day 22) was 39.2 g, the “Body weight change rate” value ([1]; day 22) was −13.4% and the “Body weight (mean)” value ([1]; day 23) was 38.9 g. The “Body weight change rate” value ([1]; day 23) was −14.0%, the “Body weight (mean)” value ([1]; day 24) was 38.2 g and the “Body weight change rate” value ([1]; day 24) was −15.6%. The “Body weight (mean)” value ([1]; day 25) was 38.4 g, the “Body weight change rate” value ([1]; day 25) was −15.1% and the “Body weight (mean)” value ([1]; day 26) was 38.6 g. For the same compound, the “Body weight change rate” value ([1]; day 26) was −14.6%, the “Body weight (mean)” value ([1]; day 27) was 38.7 g and the “Body weight change rate” value ([1]; day 27) was −14.5%. For the same compound, the “Body weight (mean)” value ([1]; day 28) was 38.4 g, the “Body weight change rate” value ([1]; day 28) was −15.1% and the “Body weight (mean)” value ([1]; day 29) was 37.4 g. The “Body weight change rate” value ([1]; day 29) was −17.4%, the “body fat mass and body fat ratio (in words)” value ([2]; day 23, relative to control group G2) was “significantly decreased” and the Body weight ([2]; mean, day 23 (Table 15), HTD1801 250 mpk, dapagliflozin 10 mpk, empagliflozin 15 mpk p.o. QD) was 38.9 g. The Body fat ratio [2, 4] was 44.8%, the “Fat (body fat mass)” value [2, 4] was 17.5 g and the “lean ratio (in words)” value ([3]; day 23, relative to model control group G2) was “slightly increased”. For the same compound, the Body weight ([3]; mean, day 23 (Table 16), HTD1801 250 mpk, dapagliflozin 10 mpk, empagliflozin 15 mpk p.o. QD) was 38.9 g, the “Lean (lean mass)” value [3, 4] was 5.1 g and the Lean ratio [3, 4] was 13.0%.
